Results published in US11312719B2, “9-substituted amino triazolo quinazoline derivatives as adenosine receptor antagonists, pharmaceutical compositions and their use” (Merck Sharp & Dohme Corp., priority 2018, dated 2022).

How the values were obtained:
[1] = target: human A2a adenosine receptor (Homo sapiens (Human), UniProt P29274); assay: A2a receptor affinity radioligand binding assay ([3H] SCH58261); conditions: membranes from HEK293 or CHO cells expressing human A2a receptor
Procedure, shortened: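 Membranes from HEK293 or CHO cells expressing human A2a were preincubated 15–30 min at room temperature with compound, then incubated 60 min at room temperature with [3H]SCH58261 (diluted to 4 nM) in 50 mM Tris pH 7.4, 10 mM MgCl2, 0.005% Tween20. Bound radioactivity was collected by filtration; nonspecific binding defined with 1 μM ZM241385; IC50 from 4-parameter logistic fit.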

[2] = target: human A2b adenosine receptor (Homo sapiens (Human), UniProt P29275); assay: A2b radioligand filtration binding assay; conditions: membranes from HEK293 cells expressing human A2b receptor
Procedure, shortened: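 Membranes from HEK293 cells expressing human A2b receptor preincubated with compound 15 to 30 min at room temperature, then tritiated proprietary A2b antagonist (diluted to 14 nM before addition) added in PBS pH 7.4 for 60 min at room temperature. Bound radioactivity by filtration and scintillation; non-specific binding with 20 μM NECA; IC50 by 4-parameter logistic fit.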

human A2a adenosine receptor, sequence (P29274 whole entry): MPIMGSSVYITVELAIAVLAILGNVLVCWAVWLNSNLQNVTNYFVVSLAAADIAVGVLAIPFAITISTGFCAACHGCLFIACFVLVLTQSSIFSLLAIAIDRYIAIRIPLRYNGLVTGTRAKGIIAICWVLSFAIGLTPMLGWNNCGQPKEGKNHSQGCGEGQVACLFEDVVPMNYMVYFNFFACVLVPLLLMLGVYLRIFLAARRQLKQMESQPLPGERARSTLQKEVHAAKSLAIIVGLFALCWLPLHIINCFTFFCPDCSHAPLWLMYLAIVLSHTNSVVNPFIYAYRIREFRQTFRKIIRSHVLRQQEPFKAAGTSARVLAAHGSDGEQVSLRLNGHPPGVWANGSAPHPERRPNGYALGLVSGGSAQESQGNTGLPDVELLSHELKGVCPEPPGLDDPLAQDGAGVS
human A2b adenosine receptor, sequence (P29275 whole entry): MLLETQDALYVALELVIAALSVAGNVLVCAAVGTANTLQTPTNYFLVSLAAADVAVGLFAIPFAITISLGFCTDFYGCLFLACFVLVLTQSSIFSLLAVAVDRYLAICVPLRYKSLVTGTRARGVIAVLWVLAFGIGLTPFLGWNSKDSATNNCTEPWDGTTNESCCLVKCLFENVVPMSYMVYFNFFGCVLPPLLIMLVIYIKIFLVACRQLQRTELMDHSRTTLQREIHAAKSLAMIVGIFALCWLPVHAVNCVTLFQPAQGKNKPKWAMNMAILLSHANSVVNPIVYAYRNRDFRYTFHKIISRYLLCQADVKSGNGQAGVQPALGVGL

| Structure (SMILES) | IC50 [1] | IC50 [2] |
| --- | --- | --- |
| C[C@H]1CC[C@@H](c2nc3c4cc(F)c(Cl)cc4nc(N)n3n2)CN1c1cnn(CC(C)(C)O)c1 [Example 110, 1-(4-((2S,5R)-5-(5-amino-8-chloro-9-fluoro-[1,2,4]triazolo[1,5-c]quinazolin-2-yl)-2-methylpiperidin-1-yl)-1H-pyrazol-1-yl)-2-methylpropan-2-ol] | 0.0002 µM | 0.0018 µM |
| COc1cc(F)cc2c1nc(N)n1nc(C3CCC(C)N(c4cnn(CC(C)(C)O)c4)C3)nc21 (single isomer, unassigned) [Example 118, 1-(4-((2R or 2S,5R or 5S)-5-(5-amino-9-fluoro-7-methoxy-[1,2,4]triazolo[1,5-c]quinazolin-2-yl)-2-methylpiperidin-1-yl)-1H-pyrazol-1-yl)-2-methylpropan-2-ol] | 0.0019 µM | 0.387 µM |
| COc1cc(F)cc2c1nc(N)n1nc([C@H]3C[C@@H](F)CN(c4cnn(CC(C)(C)O)c4)C3)nc21 (single isomer, unassigned) [Example 69, 1-(4-((3S,5R or 3R,5S)-3-(5-amino-9-fluoro-7-methoxy-[1,2,4]triazolo[1,5-c]quinazolin-2-yl)-5-fluoropiperidin-1-yl)-1H-pyrazol-1-yl)-2-methylpropan-2-ol] | 0.0026 µM | 0.561 µM |
| COc1cc2nc(N)n3nc([C@@H]4CCCN(c5cnn([C@H]6CCC[C@]6(C)O)c5)C4)nc3c2cc1F (single isomer, unassigned) [Example 83, (1S or 1R,2S or 2R)-2-(4-((R)-3-(5-amino-9-fluoro-8-methoxy-[1,2,4]triazolo[1,5-c]quinazolin-2-yl)piperidin-1-yl)-1H-pyrazol-1-yl)-1-methylcyclopentan-1-ol] | 0.0027 µM | 0.113 µM |
| COc1cc(F)cc2c1nc(N)n1nc([C@@H]3CCCN(c4ncn(CC(C)(C)O)n4)C3)nc21 [Example 36, (R)-1-(3-(3-(5-amino-9-fluoro-7-methoxy-[1,2,4]triazolo[1,5-c]quinazolin-2-yl)piperidin-1-yl)-1H-1,2,4-triazol-1-yl)-2-methylpropan-2-ol] | 0.0016 µM | 0.093 µM |
| COc1cc2nc(N)n3nc([C@@H]4CCCN(c5cn(C(C)(C)CO)nc5C)C4)nc3c2cc1F [Example 11, (R)-2-(4-(3-(5-amino-9-fluoro-8-methoxy-[1,2,4]triazolo[1,5-c]quinazolin-2-yl)piperidin-1-yl)-3-methyl-1H-pyrazol-1-yl)-2-methylpropan-1-ol] | 0.0005 µM | 0.056 µM |
| CCn1cc([C@]2(O)CCC[C@@H](c3nc4c5cc(F)c(OC)cc5nc(N)n4n3)C2)cn1 (single isomer, unassigned) [Example 148, (1S or 1R,3R or 3S)-3-(5-amino-9-fluoro-8-methoxy-[1,2,4]triazolo[1,5-c]quinazolin-2-yl)-1-(1-ethyl-1H-pyrazol-4-yl)cyclohexan-1-ol] | 0.385 µM | 4.43 µM |
| COc1cc2nc(N)n3nc([C@@H]4CCCN(c5cn(C6CCOCC6)nc5C)C4)nc3c2cc1F [Example 17, (R)-9-fluoro-8-methoxy-2-(1-(3-methyl-1-(tetrahydro-2H-pyran-4-yl)-1H-pyrazol-4-yl)piperidin-3-yl) [1,2,4]triazolo[1,5-c]quinazolin-5-amine] | 0.0017 µM | 0.434 µM |
| COc1cc2nc(N)n3nc([C@@H]4CCCN(c5cn(CC(C)(C)O)nc5C)C4)nc3c2cc1F [Example 9, (R)-1-(4-(3-(5-amino-9-fluoro-8-methoxy-[1,2,4]triazolo [1,5-c]quinazolin-2-yl)piperidin-1-yl)-3-methyl-1H-pyrazol-1-yl)-2-methylpropan-2-ol] | 0.0005 µM | 0.136 µM |
| COc1ccc(N2CCC[C@@H](c3nc4c5cc(F)c(OC)cc5nc(N)n4n3)C2)cn1 [Example 26, (R)-9-fluoro-8-methoxy-2-(1-(6-methoxypyridin-3-yl)piperidin-3-yl)-[1,2,4]triazolo[1,5-c]quinazolin-5-amine] | 0.0039 µM | 0.0487 µM |
| COc1cc(F)cc2c1nc(N)n1nc(C3CCCCN(c4cnn(CC(C)(C)O)c4)C3)nc21 (racemic) [Example 39, rac-1-(4-(3-(5-amino-9-fluoro-7-methoxy-[1,2,4]triazolo [1,5-c]quinazoln-2-yl)azepan-1-yl)-1H-pyrazol-1-yl)-2-methylpropan-2-ol] | 0.0011 µM | 0.0433 µM |

The remaining compounds from weak to strong by IC50 [1], led by results:

| IC50 [1] | IC50 [2] | Structure (SMILES) |
| --- | --- | --- |
| 0.0864 µM | 2.5 µM | COc1cc(F)cc2c1nc(N)n1nc(C3CCC(C)N(c4cnn(C(C)(C)CO)c4)C3)nc21 (single isomer, unassigned) [Example 125, 2-(4-((2S or 2R,5R or 5S)-5-(5-amino-9-fluoro-7-methoxy-[1,2,4]triazolo[1,5-c]quinazolin-2-yl)-2-methylpiperidin-1-yl)-1H-pyrazol-1-yl)-2-methylpropan-1-ol] |
| 0.0447 µM | 4.62 µM | COc1cc2nc(N)n3nc([C@H]4C[C@@H](C)CN(c5cnn(CC(C)(C)O)c5)C4)nc3c2cc1F (single isomer, unassigned) [Example 91, 1-(4-((3S,5R or 3R,5S)-3-(5-amino-9-fluoro-8-methoxy-[1,2,4]triazolo[1,5-c]quinazolin-2-yl)-5-methylpiperidin-1-yl)-1H-pyrazol-1-yl)-2-methylpropan-2-ol] |
| 0.0118 µM | 0.066 µM | COc1cc2nc(N)n3nc([C@@H]4CCCN(c5cnn(CS(C)(=O)=O)c5)C4)nc3c2cc1F [Example 131, (R)-9-fluoro-8-methoxy-2-(1-(1-((methylsulfonyl)methyl)-1H-pyrazol-4-yl)piperidin-3-yl)-[1,2,4]triazolo[1,5-c]quinazolin-5-amine] |
| 0.001 µM | 0.555 µM | COc1cc2nc(N)n3nc([C@@H]4CCCN(c5ncn(C(C)C(C)(C)O)n5)C4)nc3c2cc1F (single isomer, unassigned) [Example 64, (R or S)-3-(3-((R)-3-(5-amino-9-fluoro-8-methoxy-[1,2,4]triazolo[1,5-c]quinazolin-2-yl)piperidin-1-yl)-1H-1,2,4-triazolo-1-yl)-2-methylbutan-2-ol] |
| 0.0007 µM | 0.0165 µM | C[C@H]1CC[C@@H](c2nc3c4cc(F)cc(F)c4nc(N)n3n2)CN1c1cnn(CC(C)(C)O)c1 [Example 111, 1-(4-((2S,5R)-5-(5-amino-7,9-difluoro-[1,2,4]triazolo[1,5-c]quinazolin-2-yl)-2-methylpiperidin-1-yl)-1H-pyrazol-1-yl)-2-methylpropan-2-ol] |
| 0.0007 µM | 0.0246 µM | COc1cc2nc(N)n3nc([C@@H]4CC[C@H](C)N(c5cnn(C6CCC(C)(O)CC6)c5)C4)nc3c2cc1F (single isomer, unassigned) [Example 96, rac-(1r,4s or 1r,4r)-4-(4-((2S,5R or 2R,5S)-5-(5-amino-9-fluoro-8-methoxy-[1,2,4]triazolo[1,5-c]quinazolin-2-yl)-2-methylpiperidin-1-yl)-1H-pyrazol-1-yl)-1-methylcyclohexan-1-ol] |
| 0.0003 µM | 0.0027 µM | COc1cc2nc(N)n3nc([C@@H]4CC[C@H](C)N(c5cnn([C@@H](C)C(C)(C)O)c5)C4)nc3c2cc1F (single isomer, unassigned) [Example 49, (S or R)-3-(4-((2S,5R or 2R,5S)-5-(5-amino-9-fluoro-8-methoxy-[1,2,4]triazolo[1,5-c]quinazolin-2-yl)-2-methylpiperidin-1-yl)-1H-pyrazol-1-yl)-2-methylbutan-2-ol] |
